Data reported in the CheMixHub viscosity set.
± gives the uncertainty stated by the source.

Assay: xn = mol fraction of the nth substance listed

CC(C)(C)N + O
Conditions	viscosity [mPa·s]
298 K, 101 kPa, x1 = 0.001	0.993 ± 0.013
298 K, 101 kPa, x1 = 0.01	1.068 ± 0.013
298 K, 101 kPa, x1 = 0.02	1.269 ± 0.014
298 K, 101 kPa, x1 = 0.03	1.527 ± 0.016
298 K, 101 kPa, x1 = 0.04	1.698 ± 0.017
298 K, 101 kPa, x1 = 0.05	1.89 ± 0.018
298 K, 101 kPa, x1 = 0.06	2.059 ± 0.019
298 K, 101 kPa, x1 = 0.08	2.363 ± 0.022
298 K, 101 kPa, x1 = 0.1	2.604 ± 0.023
298 K, 101 kPa, x1 = 0.15	2.992 ± 0.026
298 K, 101 kPa, x1 = 0.2	3.112 ± 0.027
298 K, 101 kPa, x1 = 0.25	3.057 ± 0.027
298 K, 101 kPa, x1 = 0.3	2.832 ± 0.025
298 K, 101 kPa, x1 = 0.4	2.211 ± 0.021
298 K, 101 kPa, x1 = 0.5	1.642 ± 0.017
298 K, 101 kPa, x1 = 0.6	1.195 ± 0.014
298 K, 101 kPa, x1 = 0.7	0.881 ± 0.012
298 K, 101 kPa, x1 = 0.8	0.677 ± 0.011
298 K, 101 kPa, x1 = 0.85	0.594 ± 0.011
298 K, 101 kPa, x1 = 0.9	0.534 ± 0.011
298 K, 101 kPa, x1 = 0.92	0.523 ± 0.011
298 K, 101 kPa, x1 = 0.95	0.48 ± 0.011
298 K, 101 kPa, x1 = 0.97	0.462 ± 0.011
298 K, 101 kPa, x1 = 0.98	0.456 ± 0.011
298 K, 101 kPa, x2 = 0.01	0.445 ± 0.011
298.15 K, 101.33 kPa, x1 = 0.1001	2.654 ± 0.016
298.15 K, 101.33 kPa, x1 = 0.2002	3.163 ± 0.019
298.15 K, 101.33 kPa, x1 = 0.2998	2.906 ± 0.019
298.15 K, 101.33 kPa, x1 = 0.3996	2.294 ± 0.017
298.15 K, 101.33 kPa, x1 = 0.5	1.69 ± 0.014
298.15 K, 101.33 kPa, x1 = 0.5999	1.229 ± 0.011
298.15 K, 101.33 kPa, x1 = 0.6984	0.9094 ± 0.0088
298.15 K, 101.33 kPa, x1 = 0.7998	0.6936 ± 0.0073
298.15 K, 101.33 kPa, x1 = 0.9	0.5459 ± 0.0063
303 K, 101 kPa, x1 = 0.001	0.81 ± 0.012
303 K, 101 kPa, x1 = 0.01	0.947 ± 0.013
303 K, 101 kPa, x1 = 0.02	1.116 ± 0.013
303 K, 101 kPa, x1 = 0.03	1.29 ± 0.014
303 K, 101 kPa, x1 = 0.04	1.455 ± 0.015
303 K, 101 kPa, x1 = 0.05	1.606 ± 0.016
303 K, 101 kPa, x1 = 0.06	1.745 ± 0.017
303 K, 101 kPa, x1 = 0.08	1.986 ± 0.019
303 K, 101 kPa, x1 = 0.1	2.189 ± 0.02
303 K, 101 kPa, x1 = 0.15	2.516 ± 0.022
303 K, 101 kPa, x1 = 0.2	2.622 ± 0.023
303 K, 101 kPa, x1 = 0.25	2.57 ± 0.023
303 K, 101 kPa, x1 = 0.3	2.392 ± 0.021
303 K, 101 kPa, x1 = 0.4	1.901 ± 0.018
303 K, 101 kPa, x1 = 0.5	1.419 ± 0.015
303 K, 101 kPa, x1 = 0.6	1.06 ± 0.013
303 K, 101 kPa, x1 = 0.7	0.787 ± 0.012
303 K, 101 kPa, x1 = 0.8	0.609 ± 0.011
303 K, 101 kPa, x1 = 0.85	0.543 ± 0.011
303 K, 101 kPa, x1 = 0.9	0.49 ± 0.011
303 K, 101 kPa, x1 = 0.92	0.47 ± 0.011
303 K, 101 kPa, x1 = 0.95	0.442 ± 0.011
303 K, 101 kPa, x1 = 0.97	0.426 ± 0.011
303 K, 101 kPa, x1 = 0.98	0.419 ± 0.011
303 K, 101 kPa, x2 = 0.01	0.417 ± 0.011
303.15 K, 101.33 kPa, x1 = 0.1001	2.222 ± 0.014
303.15 K, 101.33 kPa, x1 = 0.2002	2.645 ± 0.017
303.15 K, 101.33 kPa, x1 = 0.2998	2.422 ± 0.017
303.15 K, 101.33 kPa, x1 = 0.3996	1.935 ± 0.014
303.15 K, 101.33 kPa, x1 = 0.5	1.453 ± 0.012
303.15 K, 101.33 kPa, x1 = 0.5999	1.076 ± 0.0096
303.15 K, 101.33 kPa, x1 = 0.6984	0.8077 ± 0.0079
303.15 K, 101.33 kPa, x1 = 0.7998	0.6226 ± 0.0066
303.15 K, 101.33 kPa, x1 = 0.9	0.5017 ± 0.0058
308 K, 101 kPa, x1 = 0.001	0.73 ± 0.012
308 K, 101 kPa, x1 = 0.01	0.846 ± 0.012
308 K, 101 kPa, x1 = 0.02	0.99 ± 0.013
308 K, 101 kPa, x1 = 0.03	1.132 ± 0.014
308 K, 101 kPa, x1 = 0.04	1.263 ± 0.014
308 K, 101 kPa, x1 = 0.05	1.394 ± 0.015
308 K, 101 kPa, x1 = 0.06	1.571 ± 0.016
308 K, 101 kPa, x1 = 0.08	1.718 ± 0.017
308 K, 101 kPa, x1 = 0.1	1.871 ± 0.018
308 K, 101 kPa, x1 = 0.15	2.168 ± 0.021
308 K, 101 kPa, x1 = 0.2	2.211 ± 0.021
308 K, 101 kPa, x1 = 0.25	2.16 ± 0.02
308 K, 101 kPa, x1 = 0.3	2.061 ± 0.02
308 K, 101 kPa, x1 = 0.4	1.643 ± 0.017
308 K, 101 kPa, x1 = 0.5	1.24 ± 0.014
308 K, 101 kPa, x1 = 0.7	0.712 ± 0.011
308 K, 101 kPa, x1 = 0.8	0.566 ± 0.011
308 K, 101 kPa, x1 = 0.85	0.499 ± 0.011
308 K, 101 kPa, x1 = 0.9	0.451 ± 0.011
308 K, 101 kPa, x1 = 0.92	0.433 ± 0.011
308 K, 101 kPa, x1 = 0.95	0.41 ± 0.011
308 K, 101 kPa, x1 = 0.97	0.396 ± 0.011
308 K, 101 kPa, x1 = 0.98	0.389 ± 0.011
308 K, 101 kPa, x2 = 0.01	0.383 ± 0.011
308.15 K, 101.33 kPa, x1 = 0.1001	1.888 ± 0.012
308.15 K, 101.33 kPa, x1 = 0.2002	2.229 ± 0.014
308.15 K, 101.33 kPa, x1 = 0.2998	2.058 ± 0.014
308.15 K, 101.33 kPa, x1 = 0.3996	1.655 ± 0.012
308.15 K, 101.33 kPa, x1 = 0.5	1.258 ± 0.01
308.15 K, 101.33 kPa, x1 = 0.5999	0.9485 ± 0.0085
308.15 K, 101.33 kPa, x1 = 0.6984	0.726 ± 0.0071
308.15 K, 101.33 kPa, x1 = 0.7998	0.5736 ± 0.0062
